We go through 2 compounds from patent US11090317B2, “Aminophosphinic derivatives for preventing and treating eye inflammation” (priority 2017, dated 2021).

“Also recorded” adds a separate entry of the source.

One assay relates to corneal epithelium. The note with it: topical administration, versus non-treated corneas, cited from earlier work.
Assay [1] relates to Iba1 (ionized calcium binding adaptor molecule 1). Description: Iba1 immuno-histology in trigeminal ganglion, inflammatory keratitis model induced by LPS. The assay is classed as in vivo, mice. The note with it: LPS inflammation model; twice-daily instillation of 10 mM for 5 days. An excerpt: (§1) ATF3 (activating transcription factor 3) is a transcription factor of the family of ATF which modulates the inflammatory response of several diseases. In physiological conditions, the primary sensory neurones express very little ATF3. An increase in the number of positive neurones for ATF-3 then underlines neuronal suffering linked to an inflammatory process. In the same way, Iba1 (ionized calcium-binding adapter molecule 1) is expressed in the microglial cells activated by the presence of macrophages and thus by an inflammatory process.
(§2) Two hours after the final instillation of LPS, a mixture of 300 μL of ketamine […] (100 mg/kg of body weight) and xylazine (10 mg/kg of body weight, Virbac, France) was injected by intraperitoneal route to deeply anaesthetise the animals. After fixation, the trigeminal ganglia and the eyes were carefully dissected and post-fixated for 48 h in the same fixation mixture. Sections (40 μm) of the complex of the trigeminal sub-nucleus ([…]) were formed using a Vibratom (Leica Microsystems, Germany). The TG were placed in a 10% solution of sucrose in 1×PBS (overnight), then in a 30% solution of sucrose before freezing at −20° C. in a mixture of 7.5% gelatine and 10% sucrose. Sections (14 μm) were made in the cryostat for the TG and the eyes and conserved at −20° C. […]

A further assay relates to cornea. In words: Corneal inflammation by in vivo confocal microscopy in inflammatory model induced by LPS (corneal scratch). The arrangement: species or system mice C57Bl/6. Particulars: twice-daily instillation of 10 mM for 5 consecutive days; scratch + LPS 50 μg (1× or 2×); evaluated on the 5th day. On the procedure:
A corneal epithelial lesion (abrasion designated “scratch” in the figures) is made on the right eye of male mice C57Bl/6, 8 weeks old, using a trephine (diameter 1.5 mm) on the anaesthetised animal (isoflurane). A drop (10 μl) of LPS (50 μg) is […] deposited on the injured area and is left in contact with the cornea until the animal awakens. The experimentalist ensures the animal awakens correctly, which occurs within two minutes following the intervention.
The first topical treatment using a solution of PBS (phosphate buffer pH=7.4) (1×) or a solution of compound 1 (10 mM of compound 1 in a solution of PBS (1×)) was carried out 2 h after the instillation of LPS. This treatment was extended 2 times a day for 5 days. Four animal cages were studied:
The eye inflammation of the mice was evaluated on the 5th day using a confocal microscope in vivo. This enable images to be obtained (cellular and intercellular definition) of the cornea including the corneal epithelium, the nerve plexus, the stroma and the endothelium thanks to a capsule (Tomocap)/corneal module of the apparatus placed in contact with the cornea. The morphological changes of all the cells constituting the cornea and the corneal nerves are easily observable and quantifiable. All of the animals were anaesthetised by intraperitoneal injection (ketamine 100 mg/kg and xylazine 10 mg/kg). […]

Assay [2] relates to ATF3 (activating transcription factor 3). Description: ATF3 immuno-histology in trigeminal ganglion, inflammatory keratitis model induced by LPS. The note with it: LPS inflammation model; twice-daily instillation of 10 mM for 5 days. The assay is classed as in vivo, mice.
Description: as §1, §2

With `CN1CC[C@]23c4c5ccc(O)c4O[C@H]2[C@@H](O)C=C[C@H]3[C@H]1C5` [morphine], the “development of an oedema of the stroma” value in the assay with corneal epithelium (12 h after treatment) was “retard the development of an oedema of the stroma”. Also, the “infiltration of immune cells” value in the assay with corneal epithelium is listed as “very few immune cells present”.

As to `CC(OC(=O)N[C@@H](C)P(=O)([O-])C[C@@H](Cc1ccc(-c2ccccc2)cc1)C(=O)N[C@@H](C)C(=O)[O-])OC(=O)C(C)C.[Na+].[Na+]` (some centres unmarked) [compound 1], the “Iba1 in the trigeminal ganglion (coloration of activated microglial cells expressing Iba-1) versus PBS control group” value in assay [1] is “considerably reduces the coloration of activated microglial cells expressing Iba-1; also recorded: reduce significantly”. The “eye inflammation of the corneas (confocal images) compared to PBS 1×” value in the assay with cornea is “less inflammatory”. In addition, in assay [2], the “expression of ATF3 in the trigeminal ganglion versus PBS control group” value is reported as “considerably reduces the expression of ATF3; also recorded: reduce significantly”.
